Biological target: T1, Neutrophil elastase (Homo sapiens, UniProt P08246)
T1 sequence (P08246 whole entry): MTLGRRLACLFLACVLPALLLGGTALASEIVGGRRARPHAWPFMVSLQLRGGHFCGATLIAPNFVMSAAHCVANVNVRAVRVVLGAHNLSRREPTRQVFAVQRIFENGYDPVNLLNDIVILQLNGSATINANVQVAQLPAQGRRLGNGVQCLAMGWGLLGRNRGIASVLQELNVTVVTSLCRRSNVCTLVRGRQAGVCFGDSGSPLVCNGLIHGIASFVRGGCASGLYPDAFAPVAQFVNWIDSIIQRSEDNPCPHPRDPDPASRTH
Test: Compound was evaluated for the inhibitory activity against Human leukocyte elastase; time-dependent inhibition was not observed
Conditions: read-out: kon (M-1-s-1)

kon: 5.6 M⁻¹ s⁻¹
SMILES: CC[C@H]1C(=O)N(C(=O)NCc2ccccc2)[C@H]1Oc1ccc(C(=O)O)cc1

Source: BindingDB's records for doi:10.7270/Q2V69MR5 (n/a, 1993)
